The values that follow come from ChEMBL document CHEMBL3991601, “The target landscape of clinical kinase drugs” (Science, 2017).

The structures appear in SMILES notation. The source made the active and inactive calls. Cut-off read from the data, not from the text of the source, for most assays here: actives have a measured Kd and inactives only a lower limit. Bounds are passed on as bounds.

Test [1] concerns the target Putative heat shock protein HSP 90-beta 2 (Homo sapiens, UniProt Q58FF8).
Test [2] deals with T1, Serine/threonine-protein kinase Chk1 (Homo sapiens, UniProt O14757).
T1 sequence (O14757 whole entry): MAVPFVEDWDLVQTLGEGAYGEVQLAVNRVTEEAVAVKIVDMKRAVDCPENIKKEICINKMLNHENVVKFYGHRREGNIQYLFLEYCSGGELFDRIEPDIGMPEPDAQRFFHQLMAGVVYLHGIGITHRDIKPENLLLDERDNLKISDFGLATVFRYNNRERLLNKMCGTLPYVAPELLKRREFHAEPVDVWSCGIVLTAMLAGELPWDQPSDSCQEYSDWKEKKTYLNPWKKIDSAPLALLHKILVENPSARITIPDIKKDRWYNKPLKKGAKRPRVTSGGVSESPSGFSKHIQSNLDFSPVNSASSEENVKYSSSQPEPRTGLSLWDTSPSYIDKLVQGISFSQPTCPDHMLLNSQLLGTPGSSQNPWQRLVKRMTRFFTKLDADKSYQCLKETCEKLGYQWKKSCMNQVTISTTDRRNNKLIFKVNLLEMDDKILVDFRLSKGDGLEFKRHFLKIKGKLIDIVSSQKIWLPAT

The target in test [3] is Ribosomal protein S6 kinase alpha-1 (Homo sapiens, UniProt Q15418).
Sequence of Ribosomal protein S6 kinase alpha-1 (Q15418 whole entry): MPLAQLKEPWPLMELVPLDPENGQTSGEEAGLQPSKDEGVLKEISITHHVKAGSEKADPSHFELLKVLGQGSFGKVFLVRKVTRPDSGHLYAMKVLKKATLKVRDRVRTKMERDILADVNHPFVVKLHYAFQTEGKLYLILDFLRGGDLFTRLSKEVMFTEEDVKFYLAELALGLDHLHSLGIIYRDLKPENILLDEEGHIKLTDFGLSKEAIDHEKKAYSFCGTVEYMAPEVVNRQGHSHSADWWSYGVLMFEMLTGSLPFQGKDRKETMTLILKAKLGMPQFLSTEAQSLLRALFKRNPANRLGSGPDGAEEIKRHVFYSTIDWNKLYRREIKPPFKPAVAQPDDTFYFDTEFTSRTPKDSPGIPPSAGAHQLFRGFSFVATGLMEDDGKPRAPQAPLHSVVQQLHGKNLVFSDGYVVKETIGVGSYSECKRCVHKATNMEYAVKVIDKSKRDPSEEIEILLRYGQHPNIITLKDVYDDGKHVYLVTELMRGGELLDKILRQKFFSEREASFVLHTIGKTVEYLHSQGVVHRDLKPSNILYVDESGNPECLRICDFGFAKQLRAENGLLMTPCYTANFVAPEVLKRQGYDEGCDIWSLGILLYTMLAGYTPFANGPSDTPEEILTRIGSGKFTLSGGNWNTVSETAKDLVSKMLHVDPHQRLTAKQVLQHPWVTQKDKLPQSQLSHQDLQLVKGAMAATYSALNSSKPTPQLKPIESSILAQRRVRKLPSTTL
For test [4], the target named is Non-receptor tyrosine-protein kinase TYK2 (Homo sapiens, UniProt P29597).
Sequence of Non-receptor tyrosine-protein kinase TYK2 (P29597 whole entry): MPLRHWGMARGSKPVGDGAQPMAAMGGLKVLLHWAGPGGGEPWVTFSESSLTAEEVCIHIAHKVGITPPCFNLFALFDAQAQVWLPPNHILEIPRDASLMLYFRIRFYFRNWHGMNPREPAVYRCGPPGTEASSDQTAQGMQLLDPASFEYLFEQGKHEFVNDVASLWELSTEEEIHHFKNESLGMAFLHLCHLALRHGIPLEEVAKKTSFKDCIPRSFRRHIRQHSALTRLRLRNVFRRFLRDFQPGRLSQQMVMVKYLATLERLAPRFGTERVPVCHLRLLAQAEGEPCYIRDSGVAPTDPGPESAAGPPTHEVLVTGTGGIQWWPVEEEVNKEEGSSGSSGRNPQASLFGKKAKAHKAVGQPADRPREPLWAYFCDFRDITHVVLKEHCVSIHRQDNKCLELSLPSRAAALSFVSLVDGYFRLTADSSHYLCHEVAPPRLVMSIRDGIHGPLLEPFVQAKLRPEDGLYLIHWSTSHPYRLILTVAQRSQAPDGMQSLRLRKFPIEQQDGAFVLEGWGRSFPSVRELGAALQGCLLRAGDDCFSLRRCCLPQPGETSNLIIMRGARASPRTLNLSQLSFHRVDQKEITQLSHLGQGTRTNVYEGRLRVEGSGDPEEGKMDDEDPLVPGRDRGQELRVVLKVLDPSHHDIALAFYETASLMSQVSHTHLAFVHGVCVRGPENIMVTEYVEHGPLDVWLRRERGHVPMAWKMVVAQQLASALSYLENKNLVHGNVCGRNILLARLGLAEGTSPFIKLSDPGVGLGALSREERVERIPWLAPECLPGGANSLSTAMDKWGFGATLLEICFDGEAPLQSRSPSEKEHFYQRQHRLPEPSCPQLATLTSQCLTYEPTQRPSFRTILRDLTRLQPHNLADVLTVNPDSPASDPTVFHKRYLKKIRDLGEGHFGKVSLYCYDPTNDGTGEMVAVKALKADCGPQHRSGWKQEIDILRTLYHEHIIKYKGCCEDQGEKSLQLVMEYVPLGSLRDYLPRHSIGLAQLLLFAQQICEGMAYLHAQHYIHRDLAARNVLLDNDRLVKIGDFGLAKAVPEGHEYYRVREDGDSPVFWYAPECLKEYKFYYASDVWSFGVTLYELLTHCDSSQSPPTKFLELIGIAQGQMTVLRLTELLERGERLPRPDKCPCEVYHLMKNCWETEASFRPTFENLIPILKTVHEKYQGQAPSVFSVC
Another test addresses T2, ADP/ATP translocase 2 (Homo sapiens, UniProt P05141).
T2 sequence (P05141 whole entry): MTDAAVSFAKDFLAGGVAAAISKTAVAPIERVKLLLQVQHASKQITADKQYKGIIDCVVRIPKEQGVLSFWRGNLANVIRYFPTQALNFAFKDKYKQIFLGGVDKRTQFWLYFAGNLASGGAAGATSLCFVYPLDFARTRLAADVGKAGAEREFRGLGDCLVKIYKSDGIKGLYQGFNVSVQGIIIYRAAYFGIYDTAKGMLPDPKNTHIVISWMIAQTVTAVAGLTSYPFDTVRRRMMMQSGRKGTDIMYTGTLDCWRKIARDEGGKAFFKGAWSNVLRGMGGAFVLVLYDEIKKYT

Test [5] has as its target Mitogen-activated protein kinase 3 (Homo sapiens, UniProt P27361).
The target of test [6] is Serine/threonine-protein kinase/endoribonuclease IRE1 (Homo sapiens, UniProt O75460).
Sequence of Serine/threonine-protein kinase/endoribonuclease IRE1 (O75460 whole entry): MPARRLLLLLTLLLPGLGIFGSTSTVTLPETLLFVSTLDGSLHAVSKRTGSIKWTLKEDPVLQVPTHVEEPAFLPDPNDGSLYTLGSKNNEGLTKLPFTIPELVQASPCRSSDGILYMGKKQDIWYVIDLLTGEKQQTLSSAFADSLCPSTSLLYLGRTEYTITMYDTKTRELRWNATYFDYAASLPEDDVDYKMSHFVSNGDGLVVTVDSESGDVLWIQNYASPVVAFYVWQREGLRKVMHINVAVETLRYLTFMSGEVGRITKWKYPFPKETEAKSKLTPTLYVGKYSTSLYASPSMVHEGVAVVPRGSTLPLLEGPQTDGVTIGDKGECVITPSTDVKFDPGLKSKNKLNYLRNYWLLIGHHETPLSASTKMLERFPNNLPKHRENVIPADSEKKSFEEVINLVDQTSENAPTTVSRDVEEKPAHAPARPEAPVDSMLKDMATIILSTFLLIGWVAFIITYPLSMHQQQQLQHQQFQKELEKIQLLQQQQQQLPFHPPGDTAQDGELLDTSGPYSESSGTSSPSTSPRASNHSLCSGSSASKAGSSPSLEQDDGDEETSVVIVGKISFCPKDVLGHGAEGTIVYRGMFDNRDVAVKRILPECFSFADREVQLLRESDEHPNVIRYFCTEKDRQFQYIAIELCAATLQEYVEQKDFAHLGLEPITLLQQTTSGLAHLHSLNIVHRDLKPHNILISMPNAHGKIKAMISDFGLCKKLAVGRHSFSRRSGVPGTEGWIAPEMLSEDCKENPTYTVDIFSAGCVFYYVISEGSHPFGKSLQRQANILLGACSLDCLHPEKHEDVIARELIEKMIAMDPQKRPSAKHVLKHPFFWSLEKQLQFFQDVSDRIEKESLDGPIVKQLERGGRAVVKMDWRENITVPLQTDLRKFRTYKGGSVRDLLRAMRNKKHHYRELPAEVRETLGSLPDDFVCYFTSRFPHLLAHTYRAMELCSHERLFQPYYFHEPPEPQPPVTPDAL
Test [7] addresses Interleukin-1 receptor-associated kinase 1 (Homo sapiens, UniProt P51617).
For test [8], the target named is T3, Breakpoint cluster region protein (Homo sapiens, UniProt P11274).
T3 sequence (P11274 whole entry): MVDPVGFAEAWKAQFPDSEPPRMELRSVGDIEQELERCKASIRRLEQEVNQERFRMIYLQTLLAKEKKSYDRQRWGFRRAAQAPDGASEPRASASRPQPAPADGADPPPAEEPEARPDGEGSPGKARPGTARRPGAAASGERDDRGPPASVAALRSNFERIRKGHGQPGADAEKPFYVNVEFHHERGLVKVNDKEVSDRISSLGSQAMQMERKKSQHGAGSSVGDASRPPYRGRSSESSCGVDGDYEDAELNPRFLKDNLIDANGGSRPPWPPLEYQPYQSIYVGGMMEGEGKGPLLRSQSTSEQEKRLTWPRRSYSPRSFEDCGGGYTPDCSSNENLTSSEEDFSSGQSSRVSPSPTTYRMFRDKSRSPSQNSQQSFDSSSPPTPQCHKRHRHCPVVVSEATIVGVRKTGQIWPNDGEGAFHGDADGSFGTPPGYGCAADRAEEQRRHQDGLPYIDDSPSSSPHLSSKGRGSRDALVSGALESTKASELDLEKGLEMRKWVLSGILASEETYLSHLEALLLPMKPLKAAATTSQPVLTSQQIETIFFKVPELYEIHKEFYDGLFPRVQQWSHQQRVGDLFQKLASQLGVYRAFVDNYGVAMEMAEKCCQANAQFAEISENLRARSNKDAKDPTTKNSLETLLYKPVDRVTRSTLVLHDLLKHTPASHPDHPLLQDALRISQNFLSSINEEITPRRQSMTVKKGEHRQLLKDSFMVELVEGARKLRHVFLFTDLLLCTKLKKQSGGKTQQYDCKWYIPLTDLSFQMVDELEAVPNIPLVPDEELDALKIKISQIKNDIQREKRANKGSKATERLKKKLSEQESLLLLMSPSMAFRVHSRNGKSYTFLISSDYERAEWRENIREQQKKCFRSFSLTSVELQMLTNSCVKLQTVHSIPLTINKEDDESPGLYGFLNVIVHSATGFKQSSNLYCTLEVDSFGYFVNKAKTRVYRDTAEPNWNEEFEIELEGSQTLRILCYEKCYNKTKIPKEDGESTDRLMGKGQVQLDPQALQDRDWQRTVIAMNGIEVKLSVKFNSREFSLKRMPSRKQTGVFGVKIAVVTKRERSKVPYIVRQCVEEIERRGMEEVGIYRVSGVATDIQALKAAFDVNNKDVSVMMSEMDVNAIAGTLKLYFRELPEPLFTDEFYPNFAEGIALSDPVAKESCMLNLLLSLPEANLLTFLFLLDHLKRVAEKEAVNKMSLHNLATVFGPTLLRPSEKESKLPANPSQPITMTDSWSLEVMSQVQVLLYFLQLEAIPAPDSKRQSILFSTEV

Test [9] deals with T4, Phosphorylase b kinase gamma catalytic chain, liver/testis isoform (Homo sapiens, UniProt P15735).
T4 sequence (P15735 whole entry): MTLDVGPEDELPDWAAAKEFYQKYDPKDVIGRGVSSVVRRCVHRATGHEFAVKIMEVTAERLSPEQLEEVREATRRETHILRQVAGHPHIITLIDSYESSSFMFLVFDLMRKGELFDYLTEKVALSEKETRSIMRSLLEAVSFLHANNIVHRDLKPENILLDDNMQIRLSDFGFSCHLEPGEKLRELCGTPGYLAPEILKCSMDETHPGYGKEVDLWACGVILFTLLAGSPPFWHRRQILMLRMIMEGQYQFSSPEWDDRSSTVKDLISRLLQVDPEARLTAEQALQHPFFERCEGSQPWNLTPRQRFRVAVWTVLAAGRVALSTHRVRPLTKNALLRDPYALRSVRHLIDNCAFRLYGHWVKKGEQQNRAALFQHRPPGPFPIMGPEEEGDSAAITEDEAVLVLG
Note: in the data inactive means no Kd found up to 30 µM.

Sequence of Interleukin-1 receptor-associated kinase 1 (P51617 whole entry): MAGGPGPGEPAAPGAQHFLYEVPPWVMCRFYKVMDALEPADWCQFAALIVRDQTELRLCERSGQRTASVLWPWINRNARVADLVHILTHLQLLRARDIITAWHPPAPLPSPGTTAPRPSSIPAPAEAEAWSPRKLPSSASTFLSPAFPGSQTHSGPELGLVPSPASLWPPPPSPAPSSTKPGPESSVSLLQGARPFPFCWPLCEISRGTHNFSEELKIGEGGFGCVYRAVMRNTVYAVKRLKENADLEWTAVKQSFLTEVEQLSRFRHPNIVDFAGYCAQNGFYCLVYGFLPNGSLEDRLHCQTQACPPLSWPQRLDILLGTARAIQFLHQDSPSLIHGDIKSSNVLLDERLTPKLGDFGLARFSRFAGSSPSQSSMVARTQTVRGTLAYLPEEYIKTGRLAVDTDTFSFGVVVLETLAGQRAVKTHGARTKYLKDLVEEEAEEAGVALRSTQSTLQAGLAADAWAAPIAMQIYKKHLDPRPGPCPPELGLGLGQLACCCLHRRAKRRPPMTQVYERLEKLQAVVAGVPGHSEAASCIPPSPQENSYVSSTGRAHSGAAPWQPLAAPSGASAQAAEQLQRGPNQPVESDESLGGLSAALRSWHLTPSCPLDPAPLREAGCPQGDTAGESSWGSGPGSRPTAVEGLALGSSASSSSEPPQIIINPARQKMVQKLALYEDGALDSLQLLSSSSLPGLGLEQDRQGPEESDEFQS
Sequence of Mitogen-activated protein kinase 3 (P27361 whole entry): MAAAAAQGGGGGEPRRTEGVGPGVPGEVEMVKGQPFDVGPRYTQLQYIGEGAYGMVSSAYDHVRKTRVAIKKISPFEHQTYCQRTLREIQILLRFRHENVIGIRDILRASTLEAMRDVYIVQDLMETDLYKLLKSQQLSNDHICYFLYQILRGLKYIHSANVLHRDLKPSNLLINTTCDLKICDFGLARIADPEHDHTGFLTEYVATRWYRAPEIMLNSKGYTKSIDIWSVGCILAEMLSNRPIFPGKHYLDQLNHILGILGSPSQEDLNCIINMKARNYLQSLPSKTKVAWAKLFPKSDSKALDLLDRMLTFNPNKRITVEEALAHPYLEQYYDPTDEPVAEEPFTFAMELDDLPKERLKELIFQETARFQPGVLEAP
Sequence of Putative heat shock protein HSP 90-beta 2 (Q58FF8 whole entry): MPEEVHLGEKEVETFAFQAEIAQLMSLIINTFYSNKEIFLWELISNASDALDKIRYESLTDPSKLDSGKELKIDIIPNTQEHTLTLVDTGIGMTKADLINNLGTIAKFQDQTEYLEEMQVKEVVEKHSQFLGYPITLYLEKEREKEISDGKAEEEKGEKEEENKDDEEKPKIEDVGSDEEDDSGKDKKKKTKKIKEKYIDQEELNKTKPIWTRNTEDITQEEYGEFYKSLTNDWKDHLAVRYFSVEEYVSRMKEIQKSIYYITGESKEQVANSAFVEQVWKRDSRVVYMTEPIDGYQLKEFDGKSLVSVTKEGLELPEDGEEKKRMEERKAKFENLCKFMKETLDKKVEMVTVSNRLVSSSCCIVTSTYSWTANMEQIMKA

Take `O=C(NC[C@H](O)CO)c1ccncc1Nc1ccc(I)cc1F` [PIMASERTIB]: the Kd (in [1]; in test [2]; in [3]; in test [4]; at ADP/ATP translocase 2; in test [5]) was > 30 µM (inactive) throughout. Moreover, the Kd in [6], in test [7], in test [8] and in test [9] was > 30 µM (inactive) throughout.
`c1cc(OCCN2CCCCC2)cc(-c2n[nH]c3ccc(-c4nc[nH]n4)cc23)c1` [CC-401]: the Kd (in test [1]; in test [2]; in test [3]; in test [4]; at ADP/ATP translocase 2; in test [5]) was > 30 µM (inactive) throughout. The Kd in test [6], in [7], in test [8] and in test [9] was > 30 µM (inactive) each time.
For `NC(=O)c1ccc(N(C(N)=O)c2c(F)cccc2F)nc1-c1ccc(F)cc1F` [VX-702], the Kd (in test [1]; in test [2]; in test [3]; in test [4]; on ADP/ATP translocase 2; in test [5]) was > 30 µM (inactive) throughout. Further, the Kd in [6], in [7], in test [8] and in test [9] was > 30 µM (inactive) in each case.
On to `CC(C)(O)CC(=O)NCCn1ccc2ncnc(Nc3ccc(Oc4cccc(C(F)(F)F)c4)c(Cl)c3)c21` [TAK-285], for which the Kd (in [1]; in test [2]; in test [3]; in test [4]; on ADP/ATP translocase 2; in test [5]) was > 30 µM (inactive) each time. For the same compound, the Kd in test [6], in test [7], in [8] and in test [9] was > 30 µM (inactive) throughout.
Consider `COc1cc2ncnc(Nc3ccc(O)cc3)c2cc1OC` [WHI-P131], for which the Kd (in test [1]; in test [2]; in test [3]; in test [4]; at ADP/ATP translocase 2; in [5]) was > 30 µM (inactive) in each case. Moreover, the Kd in test [6], in [7], in test [8] and in test [9] was > 30 µM (inactive) in each case.
For the compound `CNC(=O)c1cc(COc2nnc(Nc3ccc(Cl)cc3)c3ccoc23)ccn1` [TELATINIB], the Kd (in test [1]; in test [2]; in test [3]; in test [4]; at ADP/ATP translocase 2; in test [5]) was > 30 µM (inactive) in each case. For the same compound, the Kd in [6], in test [7], in [8] and in test [9] was > 30 µM (inactive) throughout.
With `COc1cccc(Nc2ncnn3ccc(CN4CC[C@@H](N)[C@H](O)C4)c23)c1` [BMS-690514], the Kd (in general, the concentration at which binding is half-saturated) was > 30 µM (inactive) in test [1]; 1.87 µM (active) in test [2]; > 30 µM (inactive) in test [3]; > 30 µM (inactive) in test [4]; > 30 µM (inactive) at ADP/ATP translocase 2; > 30 µM (inactive) in test [5]. For the same compound, the Kd in [6] was > 30 µM (inactive); in test [7], > 30 µM (inactive); in [8], > 30 µM (inactive); in test [9] it was 4.62 µM (active).
Consider `COc1cc(F)c(F)c(Nc2ccc(I)cc2F)c1NS(=O)(=O)C1(C[C@H](O)CO)CC1` [REFAMETINIB], for which the Kd in test [1] is > 30 µM (inactive); in [2], 0.439 µM (active); in test [3] it was > 30 µM (inactive); in test [4], > 30 µM (inactive); on ADP/ATP translocase 2 it was > 30 µM (inactive); in [5], > 30 µM (inactive). In addition, the Kd in [6], in [7], in [8] and in test [9] was > 30 µM (inactive) each time.
With `Cc1ccc(C(=O)Nc2ccc(Oc3cc4cnn(C)c4cc3-c3cn[nH]c3)c(F)c2)c(=O)n1-c1ccc(F)cc1` [MERESTINIB], the Kd (in [1]; in test [2]; in test [3]; in test [4]; at ADP/ATP translocase 2; in test [5]) was > 30 µM (inactive) throughout. For the same compound, the Kd in [6], in test [7], in test [8] and in [9] was > 30 µM (inactive) throughout.
As for `C=CC(=O)Nc1cccc(Nc2nc(Nc3ccc(N4CCN(C(C)=O)CC4)cc3OC)ncc2C(F)(F)F)c1` [ROCILETINIB], the Kd (in [1]; in [2]; in test [3]; in test [4]; at ADP/ATP translocase 2; in [5]) was > 30 µM (inactive) in each case. Further, the Kd in test [6], in test [7], in test [8] and in test [9] was > 30 µM (inactive) each time.
